# From ChEMBL document CHEMBL1201862, “PubChem BioAssay data set” (2004)
# Activity calls are given as the source filed them.
# Experiments:
# [1] = molecular target: ATP-dependent molecular chaperone HSP82 (Candida albicans (strain WO-1) (Yeast), UniProt C4YTQ8); experiment: loss of DOC-induced GRE-beta-galactosidase reporter signal, dose response, Hsp90 inhibitor project, S. cerevisiae, luminescence (AID 2400); format: functional, cell-based;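 further: beta-galactosidase luminescence from glucocorticoid response element reporter as proxy for Hsp90 function; inhibitor potency where signal loss means Hsp90 inhibition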
# Sequence of ATP-dependent molecular chaperone HSP82 (C4YTQ8 whole entry): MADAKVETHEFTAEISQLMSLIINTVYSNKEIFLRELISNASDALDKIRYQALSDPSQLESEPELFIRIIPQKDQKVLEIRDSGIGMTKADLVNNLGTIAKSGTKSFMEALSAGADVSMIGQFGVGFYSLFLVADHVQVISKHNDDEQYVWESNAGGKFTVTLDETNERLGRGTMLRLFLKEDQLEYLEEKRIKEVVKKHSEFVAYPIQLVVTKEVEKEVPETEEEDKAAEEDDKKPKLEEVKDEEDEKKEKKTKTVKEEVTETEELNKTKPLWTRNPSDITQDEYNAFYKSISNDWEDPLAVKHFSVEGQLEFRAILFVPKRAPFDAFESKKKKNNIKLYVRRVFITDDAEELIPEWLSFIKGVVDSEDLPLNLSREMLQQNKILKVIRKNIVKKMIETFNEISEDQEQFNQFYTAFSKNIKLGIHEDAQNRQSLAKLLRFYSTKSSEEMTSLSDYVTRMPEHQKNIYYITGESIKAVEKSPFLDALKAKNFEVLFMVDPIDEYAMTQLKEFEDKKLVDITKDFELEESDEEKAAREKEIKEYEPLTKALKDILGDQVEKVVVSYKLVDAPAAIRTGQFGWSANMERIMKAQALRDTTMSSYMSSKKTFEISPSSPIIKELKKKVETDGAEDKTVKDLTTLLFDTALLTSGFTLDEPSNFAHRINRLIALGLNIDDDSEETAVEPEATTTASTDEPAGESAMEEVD
# [2] = Luminescence Cell-Based Dose Retest to Confirm Inhibitors of Cancer Stem Cells. [Related pubchem assays (depositor defined):AID2717, AID2721]; format: functional; settings: Homo sapiens
# [3] = C. albicans growth with fluconazole, confirmation, fluorescence, retest (AID 2467); format: functional, cell-based
# [4] = molecular target: T1, Serine/threonine-protein phosphatase (Candida dubliniensis (strain CD36 / CBS 7987 / NCPF 3949 / NRRLY-17841) (Yeast), UniProt B9W6M3); experiment: calcineurin pathway inhibitors in yeast reporter, dose response, S. cerevisiae, CDRE-lacZ, luminescence, secondary (AID 2388); format: functional, cell-based;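 further: yeast reporter cells carrying a calcineurin-responsive lacZ construct stimulated with calcium chloride; luminescent beta-galactosidase reporter signal in whole cells rather than isolated phosphatase activity; potency for inhibition where a drop in reporter signal means calcineurin blockade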
# T1 sequence (B9W6M3 whole entry): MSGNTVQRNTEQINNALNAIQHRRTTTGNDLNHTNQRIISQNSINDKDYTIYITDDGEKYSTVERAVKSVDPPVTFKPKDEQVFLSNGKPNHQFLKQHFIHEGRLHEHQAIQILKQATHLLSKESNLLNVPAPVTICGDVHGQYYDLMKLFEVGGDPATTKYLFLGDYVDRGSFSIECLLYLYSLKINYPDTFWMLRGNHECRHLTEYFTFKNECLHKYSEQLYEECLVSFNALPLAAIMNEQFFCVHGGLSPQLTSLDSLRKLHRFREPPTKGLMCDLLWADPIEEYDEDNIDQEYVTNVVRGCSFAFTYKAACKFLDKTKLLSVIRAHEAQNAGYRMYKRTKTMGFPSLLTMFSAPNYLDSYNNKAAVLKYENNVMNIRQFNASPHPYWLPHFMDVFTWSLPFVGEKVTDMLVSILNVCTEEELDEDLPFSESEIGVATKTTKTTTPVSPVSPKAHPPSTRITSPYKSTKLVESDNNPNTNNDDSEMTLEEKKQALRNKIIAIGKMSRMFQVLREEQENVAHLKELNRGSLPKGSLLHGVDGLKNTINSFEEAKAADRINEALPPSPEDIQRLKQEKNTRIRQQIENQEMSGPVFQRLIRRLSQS
# [5] = NIH-3T3 fibroblast cytotoxicity, dose response, cytotoxicity control, cell-based, fluorescence, Alamar Blue, secondary assay (AID 2327); format: functional;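 further: NIH-3T3 mouse fibroblasts cultured with fluconazole at 8 µg/mL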
# [6] = molecular target: 5-hydroxytryptamine receptor 2A (Mus musculus, UniProt P35363); format: functional, cell-based;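 further: CHO-K1 cells with tagged receptor and beta-arrestin; agonist potency measured as compound-induced activation of the receptor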
# Sequence of 5-hydroxytryptamine receptor 2A (P35363 whole entry): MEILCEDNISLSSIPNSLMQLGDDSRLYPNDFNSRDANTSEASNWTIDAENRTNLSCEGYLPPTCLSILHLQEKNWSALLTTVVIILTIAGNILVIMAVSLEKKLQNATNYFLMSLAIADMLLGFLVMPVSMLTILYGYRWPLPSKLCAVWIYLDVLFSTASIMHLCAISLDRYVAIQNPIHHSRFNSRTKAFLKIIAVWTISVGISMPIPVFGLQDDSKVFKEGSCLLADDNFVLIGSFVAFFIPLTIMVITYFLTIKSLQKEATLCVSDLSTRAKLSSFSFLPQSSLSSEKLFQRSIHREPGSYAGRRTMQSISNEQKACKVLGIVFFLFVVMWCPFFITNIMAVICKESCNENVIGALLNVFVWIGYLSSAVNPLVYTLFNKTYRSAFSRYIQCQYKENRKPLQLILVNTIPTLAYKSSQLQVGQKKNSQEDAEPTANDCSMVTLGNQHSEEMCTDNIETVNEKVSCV
# Mu-type opioid receptor = Mu-type opioid receptor (Homo sapiens, UniProt P35372); format: functional, cell-based;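 further: U2OS cells with beta-arrestin recruitment to OPRM1 by beta-gal complementation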
# Sequence of Mu-type opioid receptor (P35372 whole entry): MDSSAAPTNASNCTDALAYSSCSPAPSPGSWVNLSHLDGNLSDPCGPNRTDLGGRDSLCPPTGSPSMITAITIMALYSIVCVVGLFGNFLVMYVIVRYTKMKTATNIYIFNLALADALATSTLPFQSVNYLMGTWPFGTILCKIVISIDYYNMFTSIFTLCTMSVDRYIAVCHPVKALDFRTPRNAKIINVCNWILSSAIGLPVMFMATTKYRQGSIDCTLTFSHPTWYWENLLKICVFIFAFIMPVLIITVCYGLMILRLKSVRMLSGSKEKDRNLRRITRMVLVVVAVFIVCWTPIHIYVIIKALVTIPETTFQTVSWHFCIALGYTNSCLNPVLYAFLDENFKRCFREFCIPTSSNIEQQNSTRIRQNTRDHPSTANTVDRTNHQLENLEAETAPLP
# [7] = molecular target: T2, Rac GTPase-activating protein 1 (Homo sapiens, UniProt Q9H0H5); experiment: MgcRacGAP GTPase-activating activity inhibitors, confirmation, biochemical, ADP Hunter fluorescence, primary and confirmatory (AID 624330); format: functional
# T2 sequence (Q9H0H5 whole entry): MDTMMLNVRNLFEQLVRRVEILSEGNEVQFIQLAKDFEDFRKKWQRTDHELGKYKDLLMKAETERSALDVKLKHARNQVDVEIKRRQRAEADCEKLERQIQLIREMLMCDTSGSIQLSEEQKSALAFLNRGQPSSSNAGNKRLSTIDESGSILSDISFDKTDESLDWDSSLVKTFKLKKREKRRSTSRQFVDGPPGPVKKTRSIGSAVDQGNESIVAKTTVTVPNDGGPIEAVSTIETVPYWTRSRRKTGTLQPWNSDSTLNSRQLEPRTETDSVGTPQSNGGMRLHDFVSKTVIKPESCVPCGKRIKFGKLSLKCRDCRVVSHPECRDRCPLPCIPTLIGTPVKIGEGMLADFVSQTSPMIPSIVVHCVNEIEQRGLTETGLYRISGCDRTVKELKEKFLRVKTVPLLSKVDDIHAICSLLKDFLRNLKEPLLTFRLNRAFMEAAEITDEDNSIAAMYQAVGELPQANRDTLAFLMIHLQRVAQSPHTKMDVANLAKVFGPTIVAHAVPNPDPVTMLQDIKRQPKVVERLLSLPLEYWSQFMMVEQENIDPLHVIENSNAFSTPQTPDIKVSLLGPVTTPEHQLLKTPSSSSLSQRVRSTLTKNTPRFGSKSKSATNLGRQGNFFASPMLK
# [8] = molecular target: T3, Heat shock factor protein 1 (Mus musculus, UniProt P38532); experiment: inhibition of MG132-induced HSE-luciferase signal, confirmation, cell-based, NIH3T3, luminescence, dose retest (AID 2382); format: functional;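 further: NIH3T3 fibroblasts with HSF1-driven luciferase reporter stressed by proteasome inhibitor MG132; luminescence from HSF1-driven luciferase expression after 8 hours of MG132 stress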
# T3 sequence (P38532 whole entry): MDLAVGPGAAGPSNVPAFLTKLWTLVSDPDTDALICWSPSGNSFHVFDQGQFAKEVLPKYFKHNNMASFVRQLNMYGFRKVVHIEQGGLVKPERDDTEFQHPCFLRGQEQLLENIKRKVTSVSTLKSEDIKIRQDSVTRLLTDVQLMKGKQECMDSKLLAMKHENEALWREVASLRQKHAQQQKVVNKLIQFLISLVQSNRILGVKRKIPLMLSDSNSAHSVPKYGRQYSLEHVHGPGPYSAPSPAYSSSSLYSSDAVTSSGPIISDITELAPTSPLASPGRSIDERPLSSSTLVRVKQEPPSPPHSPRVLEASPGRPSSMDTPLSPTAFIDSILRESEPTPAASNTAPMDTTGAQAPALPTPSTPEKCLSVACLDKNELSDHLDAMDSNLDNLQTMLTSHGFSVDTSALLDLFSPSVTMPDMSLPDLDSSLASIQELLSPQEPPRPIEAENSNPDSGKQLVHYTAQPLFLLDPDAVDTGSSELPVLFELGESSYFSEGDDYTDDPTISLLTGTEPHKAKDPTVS
# [9] = cytotoxicity toward NIH3T3 fibroblasts, dose response, counter-screen, cell-based, ATP luminescence, mouse fibroblasts (AID 2010); format: functional;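 further: cells exposed to compound for about 90 hours before reading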
# [10] = molecular target: T4, Oxysterols receptor LXR-beta (Homo sapiens, UniProt P55055); format: functional, cell-based;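 further: Cell-based luminescence dose-response assay of agonist activity at LXR, run as a confirmatory counterscreen to a daf-12 agonist screen; HEK293 cells with Gal4-LXR fusion and GAL4-driven luciferase reporter; agonist potency from rising luciferase signal of a Gal4-LXR reporter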
# T4 sequence (P55055 whole entry): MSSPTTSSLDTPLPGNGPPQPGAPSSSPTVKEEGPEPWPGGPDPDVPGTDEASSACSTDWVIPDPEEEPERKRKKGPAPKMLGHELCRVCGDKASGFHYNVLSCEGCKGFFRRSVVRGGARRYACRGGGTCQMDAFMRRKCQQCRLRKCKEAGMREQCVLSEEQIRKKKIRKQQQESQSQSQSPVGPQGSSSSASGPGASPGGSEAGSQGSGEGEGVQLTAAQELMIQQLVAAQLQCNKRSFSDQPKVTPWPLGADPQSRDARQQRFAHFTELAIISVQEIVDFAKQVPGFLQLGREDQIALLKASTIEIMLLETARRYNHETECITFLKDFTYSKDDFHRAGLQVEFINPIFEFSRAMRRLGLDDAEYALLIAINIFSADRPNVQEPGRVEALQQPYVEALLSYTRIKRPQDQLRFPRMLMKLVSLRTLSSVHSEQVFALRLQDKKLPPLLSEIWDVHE
# [11] = inhibitors of intracellular T. cruzi replication, confirmation, NIH3T3 host cells, beta-gal luminescence (AID 2044); format: functional, cell-based;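 further: intracellular parasites grown in NIH/3T3 mouse fibroblasts as host cells; luminescent beta-galactosidase reporter signal from transgenic T. cruzi replicating inside host cells; inhibitors lower the luminescence signal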
# [12] = molecular target: Dual specificity tyrosine-phosphorylation-regulated kinase 1A (Rattus norvegicus, UniProt Q63470); format: biochemical, Homo sapiens
# [13] = human group III sPLA2 inhibitors, dose response, biochemical, QFRET, IC50 (AID 743457);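 further: green fluorescence rise as the enzyme cleaves BODIPY PC-A2 in liposomes; potency for inhibition of the enzyme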
# Vero = Vero cell cytotoxicity, cytotoxicity control for flavivirus capping enzyme inhibitors (AID 588742); format: functional; settings: Chlorocebus sabaeus
# [14] = cytotoxicity in HPDE-C7 cells, cell-based, fluorescence, HTS (AID 430); format: functional; settings: Homo sapiens
# [15] = cytotoxicity in KRAS-transformed pancreatic duct cells, primary screen, cell-based, fluorescence, HTS (AID 431); format: functional; settings: Homo sapiens;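 further: cell line used: HPDE-C7K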
# [16] = growth suppression of beta-catenin-knockout colon cells, dose response, cell-based, HCT116, human colon tumor (AID 1045); format: functional;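 further: HCT116 colon tumor cells with beta catenin knocked out; cells exposed to compound for 60 hours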
# [17] = growth suppression of PTEN-null colon cells, dose response, cell-based, HCT116 PTEN knockout (AID 1047); format: functional;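 further: HCT116 colon tumor cells with PTEN knocked out; cells exposed to compound for 60 hours before readout; potency for loss of cell viability measured by luminescence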
# [18] = molecular target: T5, Histone-lysine N-methyltransferase NSD2 (Homo sapiens, UniProt O96028); format: biochemical
# T5 sequence (O96028 whole entry): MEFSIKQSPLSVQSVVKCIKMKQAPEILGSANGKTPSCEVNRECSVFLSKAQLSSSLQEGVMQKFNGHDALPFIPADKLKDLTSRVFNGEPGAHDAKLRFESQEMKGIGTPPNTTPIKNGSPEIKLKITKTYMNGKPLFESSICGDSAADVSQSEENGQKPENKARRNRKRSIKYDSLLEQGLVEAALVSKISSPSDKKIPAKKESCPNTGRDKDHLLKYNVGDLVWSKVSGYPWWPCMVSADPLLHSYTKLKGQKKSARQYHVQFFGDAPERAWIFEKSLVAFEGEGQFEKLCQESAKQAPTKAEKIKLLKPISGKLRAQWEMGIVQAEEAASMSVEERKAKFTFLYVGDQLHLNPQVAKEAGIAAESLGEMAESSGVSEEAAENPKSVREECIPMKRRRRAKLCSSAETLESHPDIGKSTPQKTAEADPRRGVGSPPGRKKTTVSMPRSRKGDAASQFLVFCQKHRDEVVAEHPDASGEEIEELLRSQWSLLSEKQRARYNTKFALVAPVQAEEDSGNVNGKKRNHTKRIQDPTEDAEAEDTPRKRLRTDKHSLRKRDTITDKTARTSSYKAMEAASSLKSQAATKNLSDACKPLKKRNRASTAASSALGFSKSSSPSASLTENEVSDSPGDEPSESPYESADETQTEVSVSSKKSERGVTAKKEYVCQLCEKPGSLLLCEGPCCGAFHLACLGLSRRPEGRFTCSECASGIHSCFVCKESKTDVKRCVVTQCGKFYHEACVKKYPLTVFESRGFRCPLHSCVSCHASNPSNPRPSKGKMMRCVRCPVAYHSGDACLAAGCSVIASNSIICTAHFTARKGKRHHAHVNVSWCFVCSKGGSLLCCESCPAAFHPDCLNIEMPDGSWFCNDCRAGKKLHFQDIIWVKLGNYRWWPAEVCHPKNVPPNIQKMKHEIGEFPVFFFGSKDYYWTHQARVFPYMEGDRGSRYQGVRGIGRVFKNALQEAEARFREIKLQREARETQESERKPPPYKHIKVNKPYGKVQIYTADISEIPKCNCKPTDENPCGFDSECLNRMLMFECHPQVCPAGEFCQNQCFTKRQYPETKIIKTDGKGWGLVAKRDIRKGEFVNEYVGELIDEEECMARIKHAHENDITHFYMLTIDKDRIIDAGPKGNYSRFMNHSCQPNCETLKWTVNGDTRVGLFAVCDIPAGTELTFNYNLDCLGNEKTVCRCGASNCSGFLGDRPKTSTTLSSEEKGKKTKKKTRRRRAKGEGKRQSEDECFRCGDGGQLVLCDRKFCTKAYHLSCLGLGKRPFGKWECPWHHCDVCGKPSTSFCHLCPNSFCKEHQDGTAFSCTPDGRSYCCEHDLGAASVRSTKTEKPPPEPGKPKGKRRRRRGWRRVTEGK
# [19] = cytotoxicity in OVCAR8 ovarian cancer cells, dose response, PAX8 project, cell-based, plate reader, dry powder samples (AID 743197); format: functional; settings: OVCAR-8
# Paired box protein Pax-8 = Paired box protein Pax-8 (Homo sapiens, UniProt Q06710); experiment: inhibitors of PAX8-driven TPO luciferase reporter, dose response, RMG-I cells, cherry-pick (AID 687027); format: functional, cell-based;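 further: luciferase reporter driven by Pax8 target thyroperoxidase promoter measured by SteadyGlo luminescence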
# Sequence of Paired box protein Pax-8 (Q06710 whole entry): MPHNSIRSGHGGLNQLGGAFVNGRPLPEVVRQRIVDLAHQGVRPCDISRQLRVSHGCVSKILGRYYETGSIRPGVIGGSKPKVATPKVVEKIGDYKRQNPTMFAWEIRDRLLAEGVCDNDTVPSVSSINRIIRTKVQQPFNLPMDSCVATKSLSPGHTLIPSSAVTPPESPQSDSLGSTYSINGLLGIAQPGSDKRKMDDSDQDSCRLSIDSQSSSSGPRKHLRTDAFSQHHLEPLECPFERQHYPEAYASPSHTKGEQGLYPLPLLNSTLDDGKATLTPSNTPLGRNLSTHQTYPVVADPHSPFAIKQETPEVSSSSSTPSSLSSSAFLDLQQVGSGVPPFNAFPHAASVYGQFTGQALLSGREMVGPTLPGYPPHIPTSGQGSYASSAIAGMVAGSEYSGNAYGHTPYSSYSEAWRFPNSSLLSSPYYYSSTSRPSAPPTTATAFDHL
# [20] = LGR2 antagonists, dose response, cell-based, HEK293, CRE-luciferase reporter, cherry pick, set 2 (AID 743343); format: functional;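 further: transfected cells were stimulated with diluted bursicon conditioned medium after compound addition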
# [21] = A549 cell cytotoxicity, dose response, cytotoxicity control, plate reader, cherry-pick, antagonist series (AID 743412); format: functional, cell-based
# [22] = MC4R antagonists, dose response, counter-screen for LGR2 antagonist project, cell-based, plate reader, cherry pick (AID 743444); format: functional;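 further: transfected HEK 293 cells stimulated with alpha-MSH peptide; potency of inhibitors of the alpha-MSH evoked signal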
# [23] = HepG2 cell cytotoxicity, dose response, cytotoxicity control, plate reader, cherry-pick, antagonist series (AID 743416); format: functional, cell-based
# [24] = HEK293 cell cytotoxicity, dose response, cytotoxicity control, plate reader, cherry-picked samples (AID 743446); format: functional, cell-based
smiles,measurement,setting,value
O=[N+]([O-])c1cccc(-c2cc(-c3cc(Br)ccc3O)n[nH]2)c1,EC50,[1],11.9 µM (active)
same,AC50,[2],2.03 µM (active)
same,EC50,[3],0.954 µM (active)
same,EC50,[4],> 180 µM (inactive)
same,EC50,[5],19 µM (inconclusive)
CC(=O)c1cccc(OCC(O)CNCC2COc3ccccc3O2)c1 (stereo not drawn),EC50,[6],2.85 µM (active)
same,EC50,Mu-type opioid receptor,92.5 µM (inactive)
Cc1ccc(S(=O)(=O)N2CCOCC2)cc1NC(=O)CNCc1cccnc1,EC50,[6],6.05 µM (active)
same,EC50,Mu-type opioid receptor,92.5 µM (inactive)
same,IC50,[7],108 µM (active)
C(=N\NC1=Nc2cccc3cccc1c23)/c1ccccn1,EC50,[8],3.2 µM (active)
same,EC50,[9],> 60 µM (not active)
same,EC50,[3],1.05 µM (active)
same,EC50,[10],> 67.5 µM (inactive)
same,EC50,cells,> 67.5 µM (inactive)
same,EC50,[11],0.619 µM (active)
same,EC50,[5],2.55 µM (inconclusive)
same,AC50,[12],9.7 µM (active)
Cc1cccc(NC(S)=NNC(=O)c2ccc3c(c2)OCO3)c1,IC50,[13],> 122 µM (inactive)
CN1CCc2c(C#N)c(N3CCCCC3)nc(NCc3ccccc3)c2C1,CC50,Vero,> 40 µM (active)
same,EC50,[9],> 60 µM (not active)
same,EC50,[14],16.8 µM (active)
same,EC50,[11],0.639 µM (active)
same,EC50,[15],2.44 µM (active)
same,EC50,[16],13.5 µM (active)
same,EC50,[17],17.8 µM (active)
Oc1ccc(C2=CCNCC2)cc1O,EC50,[6],0.0242 µM (active)
same,EC50,Mu-type opioid receptor,92.4 µM (inactive)
C/C(=N\NC(=S)Nc1ccc(C)cc1)c1cc2ccccc2o1.CN(C)C=O,IC50,[13],31.8 µM (inactive)
CCN1/C(=C/C(C)=C/c2sc3ccccc3[n+]2CC)Sc2ccccc21,AC50,[18],7.11 µM (active)
C[C@H]1CN([C@@H](C)CO)S(=O)(=O)c2ccc(-c3ccc(C#N)cc3)cc2O[C@@H]1CN(C)Cc1cccc(F)c1,AC50,[19],> 60 µM (inactive)
same,AC50,Paired box protein Pax-8,8.67 µM (active)
CCN(CC)CCCNc1cc(C(F)(F)F)c(C#N)c2nc3ccccc3n12,AC50,[18],> 20 µM (inactive)
N#C[C@@H]1[C@H](c2ccc(C#Cc3ccc(F)cc3)cc2)[C@@H](CO)N1C(=O)C1CCCC1,AC50,[20],15.8 µM (active)
same,AC50,[21],19.1 µM (active)
same,AC50,[22],13.1 µM (active)
same,AC50,[23],18.5 µM (active)
same,AC50,[24],50.9 µM (active)
